{
  "source": "patent US20250064932A1",
  "about": "“GLYCO-ENGINEERED CAR-T CELLS” (VIB VZW, priority 2021, published 2025)",
  "key": {"lymphoma cell": {"tested_on": "lymphoma cell", "conditions": "cited from earlier work"}, "[1]": {"tested_on": "human lymphocytes and neutrophils", "conditions": "up to 1% v/v DMSO, PMA for 4 hours; cited from earlier work"}, "human CD8+ T cells": {"tested_on": "human CD8+ T cells", "conditions": "for T cell proliferation: IL-2", "experimental": "Human CD8^+ T cells were purified and incubated with human T cell-activator CD3/CD28 dynabeads for T cell expansion and activation, and this in the presence of different cytokine combinations and increasing concentrations of DMSO. In order to evaluate the effect of DMSO on the proliferation of T cells in culture, cells were labeled with Tag-it Violet™ proliferation and cell tracking dye. […] Flow cytometry analysis was performed on multiple days following start up until day 11 in culture in order to evaluate T cell activation and differentiation markers.\nFor human T cell phenotyping, cells were labeled with fluorescent antibodies against human CD8, CD62L and CD45RA (BD Biosciences) and CD3, CD4, CD25, CD69, CD197 (CCR7), TIM-3 (CD366), CD152 (CTLA4) and CD279 (PD-1) (Biolegend). A Fixable dye eFluor™ 780 (eBioscience) was used to evaluate live/dead cells.\nPeripheral blood lymphocytes were prepared by a Ficoll-Paque density centrifugation as described in the instruction manual for Leucosep™ (Greiner bio-one). CD8^+ T cells were isolated by negative selection (MojoSort™ Human CD8 T cell Isolation kit, Biolegend) according to the manufacture's protocol. Cells were cultured in RPMI 1640 medium (Gibco-BRL) supplemented with L-glutamine (0.03%, Gibco), 0.4 mM sodiumpyruvate (Merck Millipore) and 50 μM β-mercapto-ethanol (Sigma Aldrich) and 10% heat-inactivated fetal calf serum (FCS), in 48 well plates (Sarstedt) and stimulated with human anti-CD3/CD28 Dynabeads (1 bead:3 cell ratio) (Thermo Fisher Scientific) for 4 days at 37° C. Prior to cell seeding, Dynabeads and bead-bound cells were removed by separation on a magnet (after transfer to an Eppendorf tube) and the supernatant containing the CD8^+ T cells was collected. Cells were washed twice with PBS before putting them in culture with different cytokine combinations: (1) recombinant human (rh) IL-2 at 50 units/mL (Life Technologies); (2) rhIL-7 at 10 ng/mL (R&D systems) and rhIL-15 at 1 ng/mL (Miltenyi). Cytokines and medium were replaced every 2-3 days. Where indicated, increasing concentrations of DMSO (Sigma) were added as given by % v/v.\nHuman T cells were stained with Tag-it Violet™ Proliferation and Cell Tracking Dye (Biolegend), according to manufacturer's protocol."}, "CD4+ T cell": {"tested_on": "CD4+ T cell", "conditions": "cited from earlier work"}, "[2]": {"conditions": "DMSO treated vs untreated, day 11, 1.2% DMSO"}},
  "note": "Like-named read-outs stand apart in the source and are kept apart here.",
  "data": [
    {"molecule": "C[S+](C)[O-]", "note": "[DMSO, Dimethyl sulfoxide]", "values": [
      {"measurement": "DMSO concentrations at which lymphoma cell death is prevented", "setting": "lymphoma cell", "result": "1-2%"},
      {"measurement": "IFN-γ and TNF-α production in the cytoplasm", "setting": "[1]", "result": "did not change IFN-γ and TNF-α production"},
      {"measurement": "effect on survival of the cells", "setting": "human CD8+ T cells", "result": "does not have a negative effect on survival"},
      {"measurement": "survival rate", "setting": "human CD8+ T cells", "result": "small increases in survival rate"},
      {"measurement": "T cell proliferation", "setting": "human CD8+ T cells; 0.6% DMSO", "result": "still tolerated"},
      {"measurement": "T cell proliferation", "setting": "human CD8+ T cells; 1.2% DMSO", "result": "marked decrease in T cell proliferation"},
      {"measurement": "CD8+ T cell differentiation", "setting": "human CD8+ T cells; CD8+ T cells purified from the same donor, IL-12 stimulation, IL-7 and IL-15, 1.2% DMSO, day 13", "result": "clearly skewed from naïve-like towards a TCM phenotype"},
      {"measurement": "expression level of CD25", "setting": "human CD8+ T cells; [2]", "result": "lower"},
      {"measurement": "expression of CD69", "setting": "human CD8+ T cells; [2]", "result": "higher"},
      {"measurement": "decrease in proportion of CD8+ T cells expressing TIM-3", "setting": "human CD8+ T cells; IL-2, increasing DMSO", "result": "~4", "unit": "%"},
      {"measurement": "proportion of cells expressing PD-1 after stimulation", "setting": "human CD8+ T cells; IL-2, increasing DMSO", "result": "seems to decrease faster by day 7"},
      {"measurement": "T cell differentiation", "setting": "human CD8+ T cells; IL-7 and IL-15", "result": "preferentially differentiate towards a TCM phenotype"},
      {"measurement": "DMSO concentration with inhibitory effect on T cell proliferation", "setting": "human CD8+ T cells; IL-7 and IL-15, prolonged culture", "result": "≥ 0.6", "unit": "%"},
      {"measurement": "TIM-3 expression level", "setting": "human CD8+ T cells; fluorescence intensity, in the presence of DMSO", "result": "markedly reduced"},
      {"measurement": "frequency of CD25 positive cells", "setting": "human CD8+ T cells; increasing DMSO (0.1%-1.2%)", "result": "decreases in time and with increasing DMSO concentration"},
      {"measurement": "proportion of CD69 positive cells", "setting": "human CD8+ T cells; increasing DMSO (0.1%-1.2%)", "result": "increases with increasing concentrations of DMSO"},
      {"measurement": "T cell differentiation subsets", "setting": "human CD8+ T cells; increasing DMSO, most clear with IL-2, day 11", "result": "a decrease in naive and effector CD8^+ T cells in favor of an increase in memory T cells"},
      {"measurement": "cell surface marker expression (CD25, CD69, PD-1)", "setting": "human CD3+ T cells; 1.2% DMSO", "result": "cell surface marker expression is increased"},
      {"measurement": "frequency of CD25 and CD69 positive cells", "setting": "human CD3+ T cells; 1.2% DMSO, IL-7 and IL-15, day 13", "result": "increases in the presence of DMSO"},
      {"measurement": "CD3+ T cell differentiation", "setting": "human CD3+ T cells; 1.2% DMSO, day 13", "result": "skews CD3^+ T cell differentiation towards a central memory phenotype"},
      {"measurement": "proportion of cells expressing PD-1", "setting": "human CD3+ T cells; 1.2% DMSO, day 13", "result": "seems to slightly increase"},
      {"measurement": "TCM population of CD8+ T cells", "setting": "human CD3+ T cells; 1.2% DMSO, about 20% in the untreated condition", "result": "over 80%"},
      {"measurement": "expression of activation and exhaustion markers (CD25, CD69, PD-1)", "setting": "human CD3+ T cells; DMSO up to 0.6%", "result": "does not alter the expression of activation and exhaustion markers"},
      {"measurement": "CD3+ T cell survival and subset distribution", "setting": "human CD3+ T cells; human, 13 day, 1.2 % v/v", "result": "did not impact CD3^+ T cell survival nor CD4′/CD8′ subset distribution"},
      {"measurement": "CD3+ T cell survival and proliferation", "setting": "human CD3+ T cells; human, 14 day", "result": "did not impact CD3^+ T cell survival and proliferation"},
      {"measurement": "impact on CD4+ T cell differentiation", "setting": "human CD3+ T cells; increasing DMSO", "result": "less pronounced"},
      {"measurement": "CD4+/CD8+ subset distribution", "setting": "human CD3+ T cells; increasing DMSO, day 14", "result": "does not have an impact on the subset distribution"},
      {"measurement": "DMSO concentrations that suppress CD4+ T cell activation, cell growth and cytokine secretion", "setting": "CD4+ T cell", "result": "0.1-1%"}
    ]}
  ]
}
